Laboratory results from patent US9522914B2, “Azole derivative” (TAISHO PHARMACEUTICAL CO., LTD, priority 2011, dated 2016).
pIC50: −log10 of the molar value.

Molecular target: Human V1b receptor (Homo sapiens (Human), UniProt P47901)
Experiment: Binding Test for V1b Receptor ([3H]AVP, crude membrane preparation of 293FT cells)
Settings: inhibition of [3H]AVP binding (0.4 to 1 nmol/L), room temperature, 60 minutes
Protocol: Binding Test for V1b Receptor
Human V1b receptor was transiently expressed in 293FT cells (Invitrogen). The cells were collected and then homogenated in a 15 mmol/L tris-hydrochloric acid buffer (pH 7.4 and containing 2 mmol/L magnesium chloride, 0.3 mmol/L ethylenediaminetetracetic acid, and 1 mmol/L glycol ether diaminetetraacetic acid). The resulting homogenate was centrifuged at 50,000×g at 4° C. for 20 minutes. The precipitate was resuspended in a 75 mmol/L tris-hydrochloric acid buffer (pH 7.4 and containing 12.5 mmol/L magnesium chloride, 0.3 mmol/L ethylenediaminetetracetic acid, 1 mmol/L glycol ether diaminetetraacetic acid, and 250 mmol/L sucrose) to give a crude membrane preparation, which was stored at −80° C. until the binding test was initiated. In the binding test, the crude membrane preparation was diluted with a 50 mmol/L tris-hydrochloric acid buffer (pH 7.4 and containing 10 mmol/L magnesium chloride and 0.1% bovine serum albumin) and mixed with each test compound and [^3H]AVP (final concentration: 0.4 to 1 nmol/L), followed by incubation at room temperature for 60 minutes. The test compound was serially diluted with DMSO so that it would have final concentrations of 0.01 nmol/L to 1 μmol/L at the time of mixing. After the incubation, the mixture was suction filtered through a GF/C filter that was preliminarily impregnated with 0.3% polyethyleneimine. The GF/C filter was dried and after adding a scintillator, the residual radioactivity on the filter was measured using TopCount (PerkinElmer Inc.). The radioactivity in the presence of unlabeled AVP at […] was defined as 0%, and the radioactivity in the absence of unlabeled AVP was defined as 100%. A dose-response curve was plotted from radio activities in the presence of a test compound at various concentrations, and the 50% inhibitory concentration (IC50 value) of the test compound was calculated.

Human V1b receptor, sequence (P47901 whole entry): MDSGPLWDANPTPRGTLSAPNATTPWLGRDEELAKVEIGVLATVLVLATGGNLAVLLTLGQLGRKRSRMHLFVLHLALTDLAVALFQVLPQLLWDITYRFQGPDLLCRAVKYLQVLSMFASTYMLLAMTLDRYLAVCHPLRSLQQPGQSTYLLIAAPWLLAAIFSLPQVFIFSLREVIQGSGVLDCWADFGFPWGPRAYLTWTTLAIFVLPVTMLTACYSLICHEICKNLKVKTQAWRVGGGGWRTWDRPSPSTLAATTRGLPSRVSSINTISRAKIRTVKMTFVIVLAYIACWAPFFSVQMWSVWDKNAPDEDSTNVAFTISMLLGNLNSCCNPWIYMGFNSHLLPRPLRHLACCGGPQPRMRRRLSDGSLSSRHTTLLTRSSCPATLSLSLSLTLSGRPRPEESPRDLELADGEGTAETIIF

pIC50	Structure (SMILES)
7.82	CC(C)NC(=O)Cn1cc(-c2ccc(CCN3CCCCC3)cc2)nc1-c1cccc(Cl)c1 [Example A-01, 2-[2-(3-chlorophenyl)-4-{4-[2-(piperidin-1-yl)ethyl]phenyl}-1H-imidazol-1-yl]-N-(propan-2-yl)acetamide]
7.00 to 8.00	CC(C)NC(=O)Cn1cc(-c2ccc(CCN3CC4(COC4)C3)cc2)nc1-c1cccc(Cl)c1 [Example A-03, 2-[2-(3-chlorophenyl)-4-{4-[2-(2-oxa-6-azaspiro[3.3]hept-6-yl)ethyl]phenyl}-1H-imidazol-1-yl]-N-(propan-2-yl)acetamide]
7.00 to 8.00	CC(C)NC(=O)Cn1cc(-c2ccc(CCN3CCC(O)CC3)cc2)nc1-c1cccc(Cl)c1 [Example A-04, 2-[2-(3-chlorophenyl)-4-{4-[2-(4-hydroxypiperidin-1-yl)ethyl]phenyl}-1H-imidazol-1-yl]-N-(propan-2-yl)acetamide]
7.00 to 8.00	CC(C)NC(=O)Cn1cc(-c2ccc(CCN3CCCC(O)C3)cc2)nc1-c1cccc(Cl)c1 (centres unmarked) [Example A-05, 2-[2-(3-chlorophenyl)-4-{4-[2-(3-hydroxypiperidin-1-yl)ethyl]phenyl}-1H-imidazol-1-yl]-N-(propan-2-yl)acetamide]
7.00 to 8.00	CC(C)NC(=O)Cn1cc(-c2ccc(CCN3CCC(O)C3)cc2)nc1-c1cccc(Cl)c1 (centres unmarked) [Example A-06, 2-[2-(3-chlorophenyl)-4-{4-[2-(3-hydroxypyrrolidin-1-yl)ethyl]phenyl}-1H-imidazol-1-yl]-N-(propan-2-yl)acetamide]
7.74	CC(C)NC(=O)Cn1cc(-c2ccc(CCN3CCC(CO)C3)cc2)nc1-c1cccc(Cl)c1 (centres unmarked) [Example A-07, 2-[2-(3-chlorophenyl)-4-(4-{2-[3-(hydroxymethyl)pyrrolidin-1-yl]ethyl}phenyl)-1H-imidazol-1-yl]-N-(propan-2-yl)acetamide]
7.80	COc1cc(-c2nc(-c3ccc(CCN4CCCCC4)cc3)cn2CC(=O)NC(C)C)ccc1F [Example A-09, 2-[2-(4-fluoro-3-methoxyphenyl)-4-{4-[2-(piperidin-1-yl)ethyl]phenyl}-1H-imidazol-1-yl]-N-(propan-2-yl)acetamide]
8.43	COc1cc(-c2nc(-c3ccc(CCN4CCOCC4)cc3)cn2CC(=O)NC(C)C)ccc1F [Example A-10, 2-[2-(4-fluoro-3-methoxyphenyl)-4-{4-[2-(morpholin-4-yl)ethyl]phenyl}1H-imidazol-1-yl]-N-(propan-2-yl)acetamide]
8.00	COc1cc(-c2nc(-c3ccc(CCN4CCCC4)cc3)cn2CC(=O)NC(C)C)ccc1F [Example A-11, 2-[2-(4-fluoro-3-methoxyphenyl)-4-{4-[2-(pyrrolidin-1-yl)ethyl]phenyl}-1H-imidazol-1-yl]-N-(propan-2-yl)acetamide]
7.77	COc1cc(-c2nc(-c3ccc(CCN4CCC[C@H]4C)cc3)cn2CC(=O)NC(C)C)ccc1F [Example A-12, 2-[2-(4-fluoro-3-methoxyphenyl)-4-(4-{2-[(2R)-2-methylpyrrolidin-1-yl]ethyl}phenyl)-1H-imidazol-1-yl]-N-(propan-2-yl)acetamide]
7.00 to 8.00	COc1cc(-c2nc(-c3ccc(CCN4CCCC(C#N)C4)cc3)cn2CC(=O)NC(C)C)ccc1F (centres unmarked) [Example A-13, 2-[4-{4-[2-(3-cyanopiperidin-1-yl)ethyl]phenyl}-2-(4-fluoro-3-methoxyphenyl)-1H-imidazol-1-yl]-N-(propan-2-yl)acetamide]
6.00 to 7.00	COc1cc(-c2nc(-c3ccc(CCN4CCC(C#N)CC4)cc3)cn2CC(=O)NC(C)C)ccc1F [Example A-14, 2-[4-{4-[2-(4-cyanopiperidin-1-yl)ethyl]phenyl}-2-(4-fluoro-3-methoxyphenyl)-1H-imidazol-1-yl]-N-(propan-2-yl)acetamide]
6.00 to 7.00	COc1cc(-c2nc(-c3ccc(CCN4CC(C#N)C4)cc3)cn2CC(=O)NC(C)C)ccc1F [Example A-16, 2-[4-{4-[2-(3-cyanoazetidin-1-yl)ethyl]phenyl}-2-(4-fluoro-3-methoxyphenyl)-1H-imidazol-1-yl]-N-(propan-2-yl)acetamide]
7.00 to 8.00	COc1cc(-c2nc(-c3ccc(CCN4CCC(OC)C4)cc3)cn2CC(=O)NC(C)C)ccc1F (centres unmarked) [Example A-17, 2-[2-(4-fluoro-3-methoxyphenyl)-4-{4-[2-(3-methoxypyrrolidin-1-yl)ethyl]phenyl}-1H-imidazol-1-yl]-N-(propan-2-yl)acetamide]
7.72	COc1cc(-c2nc(-c3ccc(CCN4CCCC(OC)C4)cc3)cn2CC(=O)NC(C)C)ccc1F (centres unmarked) [Example A-18, 2-[2-(4-fluoro-3-methoxyphenyl)-4-{4-[2-(3-methoxypiperidin-1-yl)ethyl]phenyl}-1H-imidazol-1-yl]-N-(propan-2-yl)acetamide]
7.00 to 8.00	COc1cc(-c2nc(-c3ccc(CCN4CC(F)C4)cc3)cn2CC(=O)NC(C)C)ccc1F [Example A-19, 2-[4-{4-[2-(3-fluoroazetidin-1-yl)ethyl]phenyl}-2-(4-fluoro-3-methoxyphenyl)-1H-imidazol-1-yl]-N-(propan-2-yl)acetamide]
7.92	COc1cc(-c2nc(-c3ccc(CCN4CC(C)OC(C)C4)cc3)cn2CC(=O)NC(C)C)ccc1F (centres unmarked) [Example A-20, 2-[4-{4-[2-(2,6-dimethylmorpholin-4-yl)ethyl]phenyl}-2-(4-fluoro-3-methoxyphenyl)-1H-imidazol-1-yl]-N-(propan-2-yl)acetamide]
8.49	COc1cc(-c2nc(-c3ccc(CCN4CCC(C)C4)cc3)cn2CC(=O)NC(C)C)ccc1F (centres unmarked) [Example A-21, 2-[2-(4-fluoro-3-methoxyphenyl)-4-{4-[2-(3-methylpyrrolidin-1-yl)ethyl]phenyl}-1H-imidazol-1-yl]-N-(propan-2-yl)acetamide]
7.96	COc1cc(-c2nc(-c3ccc(CCN4CCCOCC4)cc3)cn2CC(=O)NC(C)C)ccc1F [Example A-23, 2-[2-(4-fluoro-3-methoxyphenyl)-4-{4-[2-(1,4-oxazepan-4-yl)ethyl]phenyl}-1H-imidazol-1-yl]-N-(propan-2-yl)acetamide]
7.00 to 8.00	COc1cc(-c2nc(-c3ccc(CCN4CCC(OC)CC4)cc3)cn2CC(=O)NC(C)C)ccc1F [Example A-24, 2-[2-(4-fluoro-3-methoxyphenyl)-4-{4-[2-(4-methoxypiperidin-1-yl)ethyl]phenyl}-1H-imidazol-1-yl]-N-(propan-2-yl)acetamide]

Structure (SMILES)	pIC50
CC(C)NC(=O)Cn1cc(-c2ccc(CCN3C4CCC3COC4)cc2)nc1-c1cccc(Cl)c1 [Example A-08, 2-[2-(3-chlorophenyl)-4-{4-[2-(3-oxa-8-azabicyclo[3.2.1]oct-8-yl)ethyl]phenyl}-1H-imidazol-1-yl]-N-(propan-2-yl)acetamide]	9.09
COc1cc(-c2nc(-c3ccc(CCN4C5CCC4CC(O)C5)cc3)cn2CC(=O)NC(C)C)ccc1F (centres unmarked) [Example A-15, 2-[2-(4-fluoro-3-methoxyphenyl)-4-{4-[2-(3-hydroxy-8-azabicyclo[3.2.1]oct-8-yl)ethyl]phenyl}-1H-imidazol-1-yl]-N-(propan-2-yl)acetamide]	8.62
COc1cc(-c2nc(-c3ccc(CCN4C5CCC4COC5)cc3)cn2CC(=O)NC(C)C)ccc1F [Example A-22, 2-[2-(4-fluoro-3-methoxyphenyl)-4-{4-[2-(3-oxa-8-azabicyclo[3.2.1]oct-8-yl)ethyl]phenyl}-1H-imidazol-1-yl]-N-(propan-2-yl)acetamide]	8.59
